Laboratory results: US20070196856A1, “Methods of determining activity of ryanodine receptor modulators” (Allergan, Inc., priority 2006, published 2007)

System: ryanodine receptors

- caffeine-induced Ca++ release (1.5 mM caffeine + 20 mM dantrolene, 5 minutes dantrolene pretreatment, retinal ganglion cells, FIG. 1 trace 2): blocked
- caffeine effect after washout (washout of dantrolene with 12.5 mM caffeine alone, FIG. 1 trace 3): recovered partially
SMILES: O=C1CN(/N=C/c2ccc(-c3ccc([N+](=O)[O-])cc3)o2)C(O)=N1 [dantrolene, Dantrolene]
